Experiments:
[1] = tested on: synchronized Plasmodium falciparum parasites; test: Microscopical study of cell morphology after 8-h exposures (Figure S4); type: cell-based; settings: 3× the IC50^8h of the most sensitive life stage, 8-h intervals
[2] = Solubility Assay (UV/vis spectroscopy, filter method); settings: 1 × PBS pH 7.4, 500 μM, UV/vis 280–360 nm minus 800 nm

SMILES | digestive vacuole morphology [1] | most susceptible stage by cell morphology [1] | Ratio fil./std. (absorbance filtrate/standard) [2]
CN(C)Cc1ccc(-c2cc3c(-c4ccc(CN(C)C)cc4)ccnc3[nH]2)cc1.O=C(O)C(F)(F)F [MMV022224] | without displaying swollen vacuoles | early and late trophozoite stages | 
CC(C)(C)c1ccc2c(c1)CN(Cc1ccc(Cl)cc1)CO2 [MMV000442] |  |  | 0.74

Reference: publication PMC7031696 (Cell chemical biology, 2019)
